Test results taken from patent publication US20180246121A1, “IMMUNOLOGICAL TEST METHOD AND IMMUNOLOGICAL TEST KIT” (Fuso Parmaceutical Industries, Ltd., priority 2015, published 2018).

How the values were obtained:
HMGB2 [1] = target: T1, HMGB2 (Homo sapiens, UniProt P26583); experiment: Competitive sandwich ELISA, immobilized anti-HMGB1 antibody HMa166 and HRP-labeled anti-HMGB1 antibody CP11-1: nonspecific reaction to HMGB2; type: binding; details: 1,820 ng/mL HMGB2; HMGB2 peptide 0 to 1.0 mg/mL; labeled CP11-1
T1 sequence (P26583 1-209): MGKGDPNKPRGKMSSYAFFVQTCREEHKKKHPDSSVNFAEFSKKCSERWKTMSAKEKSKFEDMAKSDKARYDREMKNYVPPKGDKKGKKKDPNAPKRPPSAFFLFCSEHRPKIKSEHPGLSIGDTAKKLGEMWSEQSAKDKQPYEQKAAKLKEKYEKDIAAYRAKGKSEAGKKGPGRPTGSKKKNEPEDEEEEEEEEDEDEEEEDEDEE
Protocol: A 100 μL portion of 10 μg/mL anti-HMGB1 antibody HMa166 was added to a 96-well ELISA plate (Maxsorp, Nunc). Then, immobilization was carried out according to a standard method, and blocking was performed by dispensing 200 μL of ImmunoBlock (DS Pharma Biomedical) diluted five-fold in purified water. After washing with TBSt (10 mM Tris pH 7.4, 150 mM NaCl, 0.05% Tween-20), HMGB2 was added at 1,400 ng/mL, the mixture was allowed to react at room temperature for two hours followed by washing with TBSt, and an HRP-labeled anti-HMGB1 antibody CP11-1 was added. Then, after washing, chromogenic substrate TMBZ (KPL) was added according to a standard method. The reaction was stopped using phosphoric acid, and the absorbance at 450 nm was measured using a microplate reader. Furthermore, as a competitive agent, commercially available anti-HMGB2 antibodies shown in Table 1 were added to the reaction system at 10 μg/mL, and impairment of the reaction due to anti-HMGB2 antibodies was observed.
Furthermore, 0 to 1,300 μg/mL HMGB2 was measured by sandwich ELISA using the MHa166 antibody and the CP11-1 antibody, which were obtained by immunization with HMGB1, to observe how much HMGB2 reacts in ELISA using the MHa166 antibody and the CP11-1 antibody. […]

HMGB1 [2] = experiment: Sandwich ELISA, immobilized HMa166 and HRP-labeled CP11-1: HMGB1 measurement in the presence of an HMGB2 absorbent; type: binding, human; details: 12.5 ng/mL HMGB1, HMGB2 peptide 0 to 1.0 mg/mL
Protocol: Then, the effects of each anti-HMGB2 antibody were observed.
By means of an ELISA system using immobilized anti-HMGB1 antibody MHa166 and an HRP-labeled anti-HMGB1 antibody CP11-1, it was examined whether nonspecific reactions by HMGB2 will be decreased when the reaction is achieved by 1,820 ng/mL HMGB2 in the presence of the HMGB2 peptide at 0 to 1.0 mg/mL (FIGS. 8B and 9B). In addition, effects of the coexisting HMGB2 peptide on HMGB1 measurements were similarly examined using 12.5 ng/mL HMGB1 (FIGS. 8A and 9A).

HMGB1 [3] = experiment: ELISA, immobilized HMa166 and HRP-labeled HMGB1 polyclonal antibody No. 12: HMGB1 measurement; type: binding, human; details: 50 ng/mL HMGB1; peptide 0.5 mg/mL; labeled polyclonal antibody No. 12
Protocol: (§1) Anti-HMGB1 antibody HMa166 at 10 μg/mL was immobilized onto a 96-well ELISA plate (Maxsorp, Nunc), and blocking was performed by dispensing 200 μL of ImmunoBlock (DS Pharma Biomedical) diluted five-fold in purified water. After washing with TBSt (10 mM Tris pH 7.4, 150 mM NaCl, 0.05% Tween-20), HMGB1 was added at 50 ng/mL or HMGB2 was added at 1,820 ng/mL, […] The mixture was allowed to react at 37° C. for two hours followed by washing with TBSt. After adding HMGB1 polyclonal antibody No. 12 or No. 14 obtained by immunizing rabbits with a synthetic human HMGB1 peptide or a recombinant human HMGB1, each of which had been labeled with HRP, the mixture was reacted at room temperature for one hour. After the reaction, the plate was washed with TBSt, and chromogenic substrate TMBZ (KPL) was added according to a standard method, the reaction was stopped with phosphoric acid, and the absorbances at 450 nm were measured using a microplate reader, […]
(§2) Next, whether similar effects can be obtained with antibodies other than CP11-1 was examined. […]

HMGB2 [4] = target: T1, HMGB2; experiment: ELISA, immobilized HMa166 and HRP-labeled HMGB1 polyclonal antibody No. 12: nonspecific reaction to HMGB2; type: binding; details: 1,820 ng/mL HMGB2; peptide 0.5 mg/mL; labeled polyclonal antibody No. 12
HMGB1 [5] = experiment: ELISA, immobilized HMa166 and HRP-labeled HMGB1 polyclonal antibody No. 14: HMGB1 measurement; type: binding, human; details: 50 ng/mL HMGB1; peptide 0.5 mg/mL; labeled polyclonal antibody No. 14
Protocol: as §1, §2

HMGB2 [6] = target: T1, HMGB2; experiment: ELISA, immobilized HMa166 and HRP-labeled HMGB1 polyclonal antibody No. 14: nonspecific reaction to HMGB2; type: binding; details: 1,820 ng/mL HMGB2; peptide 0.5 mg/mL; labeled polyclonal antibody No. 14
Protocol: Furthermore, whether commercially available anti-HMGB2 antibodies can suppress nonspecific reactions to HMGB2 even when the labelled antibody is changed was examined. Anti-HMGB1 antibody HMa166 at 10 μg/mL was immobilized onto a 96-well ELISA plate (Maxsorp, Nunc), and blocking was performed by dispensing 200 μL of ImmunoBlock (DS Pharma Biomedical) diluted five-fold in purified water. After washing with TBSt (10 mM Tris pH 7.4, 150 mM NaCl, 0.05% Tween-20), HMGB1 was added at 50 ng/mL or HMGB2 was added at 1,820 ng/mL, […] The mixture was allowed to react at 37° C. for two hours followed by washing with TBSt. After adding HMGB1 polyclonal antibody No. 12 or No. 14 obtained by immunizing rabbits with a synthetic human HMGB1 peptide or a recombinant human HMGB1, each of which had been labeled with HRP, the mixture was reacted at room temperature for one hour. After the reaction, the plate was washed with TBSt, and chromogenic substrate TMBZ (KPL) was added according to a standard method, the reaction was stopped with phosphoric acid, and the absorbances at 450 nm were measured using a microplate reader, to observe impairment of the reaction due to the anti-HMGB2 antibody.
as §2

HMGB1 [7] = experiment: ELISA, immobilized MHa166 and HRP-labeled monoclonal antibody HMa176: HMGB1 measurement; type: binding, human; details: 50 ng/mL HMGB1, peptide 0.5 mg/mL
Protocol: Similar examinations were carried out for systems using another monoclonal antibody. It was examined how the reactions achieved by 50 ng/mL HMGB1 change when MHa176 antibody, which was obtained by immunization with HMGB1, were HRP-labeled and an HMGB2 peptide was allowed to coexist at a concentration of 0.5 mg/mL in an ELISA system with the immobilized anti-HMGB1 antibody MHa166 (FIG. 12A). Furthermore, effects of the coexisting HMGB2 peptide on HMGB2 measurements were similarly examined using 1,820 ng/mL HMGB2 (FIG. 12B).

Sequence | absorption of nonspecific reaction to HMGB2 by HMGB2 peptide (HMGB2 [1]) | effect of HMGB2 peptide on measured values of HMGB1 (HMGB1 [2]) | effect of HMGB2 peptide on HMGB1 measurements (HMGB1 [3]) | effect of HMGB2 peptide on HMGB2 measurements (HMGB2 [4]) | effect of HMGB2 peptide on HMGB1 measurements (HMGB1 [5]) | neutralizing effects on HMGB2 (HMGB2 [6]) | effect of HMGB2 peptide on measured values of HMGB1 (HMGB1 [2]; listed as HM2-2 peptide) | enhancement of the reaction with HMGB1 (HMGB1 [3]) | effect of HMGB2 peptide on reactivity of HMGB1 (HMGB1 [7])
MGKGDPNKPRGKMSSYA [HM2-1, HMGB2-derived peptide, 1st to 17th amino acids of full-length human HMGB2] | able to absorb nonspecific reaction to HMGB2 in a concentration-dependent manner | hardly affected | did not affect | did not affect | did not have any influence | not observed |  |  | 
CREEHKKKHPDSSVNFAEFS [HM2-2, HMGB2-derived peptide, 23rd to 42nd amino acids of full-length human HMGB2] | absorbed nonspecific reactions to HMGB2 in a concentration-dependent manner | concentration-dependent reaction enhancement |  | attenuated | increased the reactivity of HMGB1 | not observed | concentration-dependent enhancement of the reaction | approximately 1.6 fold | enhancement of reactivity of HMGB1
